Earlier results in patent US20130345257A1, “COMPOSITION FOR LUPUS NEPHRITIS AND METHODS OF MAKING AND USING THE SAME” (The Regents of the University of California, priority 2012, published 2013).

Tests used:
murine SLE model = conditions: mouse, in vivo; cited from earlier work
human lupus = conditions: phase 1b trial; cited from earlier work
[1] = pulled out of a clinical trial; cited from earlier work

Row | SMILES | Efficacy in murine SLE model (murine SLE model) | Adverse events profile (human lupus) | Toxicity in clinical trial [1]
1 | CCc1cccc2c1c(O)c(C(=O)N(CC)c1ccccc1)c(=O)n2C [paquinimod] | effective | favorable adverse events profile | 
2 | CN(C(=O)c1c(O)c2ccccc2n(C)c1=O)c1ccccc1 [roquinimex] |  |  | serious cardiovascular toxicities
